74 compounds from patent publication US10683311B2 (priority 2015, dated 2020) can be followed below.

The first data set can be described thus: log P by HPLC on reversed-phase column (C18), EEC Directive 79/831 Annex V.A8. In kind it is physicochemical. The settings on record: Method A: 40° C., 0.1% aqueous formic acid and acetonitrile. The protocol: In table 1, the log P values were determined in accordance with EEC Directive 79/831 Annex V.A8 by HPLC (High Performance Liquid Chromatography) on a reversed-phase column (C18), using the methods described below:
Method A: temperature: 40° C.; mobile phases: 0.1% aqueous formic acid and acetonitrile; linear gradient from 10% acetonitrile to 95% acetonitrile;
Method B: temperature: 40° C.; mobile phases: 0.001 molar ammonium acetate solution in water and acetonitrile; linear gradient from 10% acetonitrile to 95% acetonitrile.
Calibration was carried out using unbranched alkan-2-ones (comprising 3 to 16 carbon atoms) with known log P values (determination of the log P values by the retention times using linear interpolation between two successive alkanones). lambda-max-values were determined using UV-spectra from 200 nm to 400 nm and the peak values of the chromatographic signals.
Usually logP stands for a log measure of how a compound divides between an organic and an aqueous phase. For the compound `Cc1nc2c(F)c(F)ccc2nc1Oc1cccc(Cl)c1[Si](C)(C)O` [I.090], the lipophilicity (logP) is listed as 3.94.

The compound `C=C[Si](C)(C)c1c(F)cccc1Oc1nc2ccc(F)c(F)c2nc1C` [I.091] yielded a logP of 5.62.

Take `Cc1nc2c(F)c(F)ccc2nc1Oc1cccc(F)c1[Si](C)(C)F` [I.092]: the log partition coefficient (logP) worked out at 4.75.

In the case of `Cc1nc2c(F)c(F)ccc2nc1Oc1cc(C#N)ccc1[Si](C)(C)O` [I.093], the lipophilicity (logP) was determined as 3.39.

In turn, `COc1cccc(Oc2nc3ccc(F)c(F)c3nc2C)c1[Si](C)(C)O` [I.094] had a logP of 3.60.

In turn, `Cc1nc2c(F)c(F)ccc2nc1Oc1cccc(OC(F)(F)F)c1[Si](C)(C)O` [I.095] registered a logP of 4.34.

Take `Cc1ccc([Si](C)(C)O)c(Oc2nc3ccc(F)c(F)c3nc2C)c1` [I.096]: the logP was found to be 3.76.

`Cc1ccc([Si](C)(C)O)c(Oc2nc3ccc(F)c(F)c3nc2C)c1` [I.097] registered a logP of 3.76.

`Cc1nc2c(F)c(F)ccc2nc1Oc1ccc(F)cc1[Si](C)(C)O` [I.098]: the logP is 3.63.

`Cc1ccc(Oc2nc3ccc(F)c(F)c3nc2C)c([Si](C)(C)O)c1` [I.099] gave a logP of 3.85.

Consider `Cc1nc2c(F)c(F)ccc2nc1Oc1ccc(F)cc1[Si](C)(C)C` [I.100], for which the lipophilicity (logP) is 5.57.

As for `Cc1nc2c(F)c(F)ccc2nc1Oc1ccc(Cl)cc1[Si](C)(C)C` [I.101], the logP turned out to be 6.11.

The compound `Cc1nc2c(F)c(F)ccc2nc1Oc1ccc(Cl)cc1[Si](C)(C)O` [I.102] gave a logP of 4.01.

The compound `Cc1nc2c(F)c(F)ccc2nc1Oc1c(Cl)cccc1[Si](C)(C)O` [I.103] had a log partition coefficient (logP) of 3.96.

`Cc1cccc([Si](C)(C)O)c1Oc1nc2ccc(F)c(F)c2nc1C` [I.104] yielded a logP of 3.73.

Consider `Cc1nc2c(F)c(F)ccc2nc1Oc1cc(F)ccc1[Si](C)(C)O` [I.105], for which the logP was found to be 3.58.

The compound `Cc1nc2c(F)c(F)ccc2nc1Oc1c(Cl)cccc1[Si](C)(C)C` [I.106] had a lipophilicity (logP) of 6.07.

For the compound `Cc1cccc([Si](C)(C)C)c1Oc1nc2ccc(F)c(F)c2nc1C` [I.107], the logP was 5.88.

As for `Cc1nc2c(F)c(F)ccc2nc1Oc1cc(F)ccc1[Si](C)(C)C` [I.108], the logP amounted to 5.57.

As for `Cc1nc2ccccc2nc1Oc1cccc(F)c1[Si](C)(C)O` [I.109], the logP worked out at 3.25.

Consider `Cc1nc2ccccc2nc1Oc1ccccc1[Si](C)(C)C` [I.110], for which the logP is reported as 5.31.

`Cc1nc2ccccc2nc1Oc1cccc(F)c1[Si](C)(C)C` [I.111]: the log partition coefficient (logP) was 5.45.

As to `Cc1nc2ccccc2nc1Oc1ccccc1[Si](C)(C)O` [I.112], the lipophilicity (logP) came out at 3.01.

`Cc1nc2ccccc2nc1Oc1cccc(F)c1[Si](C)(C)c1cccs1` [I.113] returned a lipophilicity (logP) of 5.51.

In turn, `COc1ccc([Si](C)(C)c2c(F)cccc2Oc2nc3ccccc3nc2C)cc1` [I.114] returned a log partition coefficient (logP) of 5.35.

Consider `Cc1nc2ccccc2nc1Oc1cccc(F)c1[Si](C)(C)c1ccccc1` [I.115], for which the logP is on record as 5.59.

`C[Si](C)(O)c1c(F)cccc1Oc1cnc2ccsc2c1` [I.117] returned a lipophilicity (logP) of 2.80.

In turn, `C[Si](C)(C)c1c(F)cccc1Oc1cnc2ccsc2c1` [I.118] gave a log partition coefficient (logP) of 5.22.

Consider `C[Si](C)(O)c1c(F)cccc1Oc1cnc2sccc2c1` [I.119], for which the lipophilicity (logP) came out at 3.09.

`C[Si](C)(C)c1c(F)cccc1Oc1cnc2sccc2c1` [I.120] showed a log partition coefficient (logP) of 5.45.

In turn, `C[Si](C)(O)c1c(F)cccc1Oc1cnc2ccnn2c1` [I.121] registered a log partition coefficient (logP) of 2.07.

For `C[Si](C)(C)c1c(F)cccc1Oc1cnc2ccnn2c1` [I.122], the logP came out at 4.23.

Regarding `C[Si](C)(C)c1ccccc1Oc1cnc2ccnn2c1` [I.123], the log partition coefficient (logP) came out at 4.11.

Compound `C[Si](C)(C)c1ccccc1Oc1cnc2nccn2c1` [I.124] returned a logP of 2.78.

`C[Si](C)(O)c1ccccc1Oc1cnc2nccn2c1` [I.125]: the log partition coefficient (logP) is given as 2.10.

Consider `C[Si](C)(O)c1ccccc1Oc1cnc2c(F)cnn2c1` [I.126], for which the log partition coefficient (logP) turned out to be 2.50.

On to `C[Si](C)(O)c1c(F)cccc1Oc1cnc2c(F)cnn2c1` [I.127], for which the logP was 2.60.

`C[Si](C)(C)c1c(F)cccc1Oc1cnc2c(F)cnn2c1` [I.128] yielded a logP of 4.61.

Compound `C[Si](C)(C)c1ccccc1Oc1cnc2c(F)cnn2c1` [I.129] came in with a logP of 4.56.

Compound `Cc1c(Cc2ccccc2[Si](C)(C)C)cnc2ccccc12` [I.130] came in with a lipophilicity (logP) of 3.19.

Consider `C[Si](C)(C)c1c(F)cccc1Sc1cnc2ccccc2c1` [I.131], for which the log partition coefficient (logP) was found to be 5.72.

For `C[Si](C)(C)c1c(F)cccc1[S+]([O-])c1cnc2ccccc2c1` (stereo not drawn) [I.132], the logP was found to be 3.63.

Compound `C[Si](C)(C)c1c(F)cccc1C(O)c1cnc2ccccc2c1` (stereo not drawn) [I.133] came in with a log partition coefficient (logP) of 4.16.

For `Cc1nc2ccccc2cc1Oc1ccc(Cl)cc1[Si](C)(C)C` [I.134], the lipophilicity (logP) is listed as 5.68.

`Cc1nc2ccccc2cc1Oc1ccc(-c2ccccc2)cc1[Si](C)(C)C` [I.135] returned a logP of 6.27.

For the compound `Cc1nc2ccccc2cc1Oc1ccc(C2CC2)cc1[Si](C)(C)C` [I.136], the lipophilicity (logP) was found to be 5.68.

`C=Cc1ccc(Oc2cc3ccccc3nc2C)c([Si](C)(C)C)c1` [I.137] registered a logP of 5.51.

`Cc1nc2ccccc2cc1Oc1ccc(-c2ccsc2)cc1[Si](C)(C)C` [I.138] displayed a lipophilicity (logP) of 5.85.

`Cc1nc2ccccc2cc1Cc1ccccc1[Si](C)(C)C` [I.139] gave a logP of 2.76.

Compound `Cc1nc2ccccc2cc1Cc1ccccc1[Si](C)(C)c1ccccc1` [I.140] registered a lipophilicity (logP) of 2.88.

Take `C[Si](C)(c1ccccc1)c1ccccc1Cc1cnc2cccnc2c1` [I.141]: the logP amounted to 4.14.

The compound `C[Si](C)(Cc1ccccc1)c1ccccc1Cc1cnc2ccccc2c1` [I.142] came in with a lipophilicity (logP) of 4.94.

Regarding `C[Si](C)(c1ccc(Cc2ccccc2)cc1)c1ccccc1Cc1cnc2ccccc2c1` [I.143], the logP amounted to 5.78.

Staying with this data set, now noted: logP Method A.
As for `Cc1nc2c(F)c(F)ccc2cc1Oc1cc([N+](=O)[O-])ccc1Br` [II.06A], the logP stood at 4.04.

The data set is the same for the next values; noted with them: reversed-phase HPLC column (C18), Method A: 40° C., 0.1% aqueous formic acid and acetonitrile.
As usually defined, the chromatographic logP is lipophilicity estimated from chromatographic retention. The compound `Fc1cccc(Oc2cnc3ccccc3c2)c1I` [IIa.01, 3-(3-fluoro-2-iodophenoxy)quinoline] came in with a chromatographic logP of 3.71.

As to `Ic1ccccc1Oc1cnc2ccccc2c1` [IIa.02, 3-(2-iodophenoxy)quinoline], the chromatographic logP came out at 3.71.

Turning to `Brc1ccccc1Oc1cnc2ccccc2c1` [IIa.03, 3-(2-bromophenoxy)quinoline], the chromatographic logP worked out at 3.47.

As for `Fc1cccc2cc(Oc3ccccc3Br)cnc12` [IIa.04, 3-(2-bromophenoxy)-8-fluoroquinoline], the chromatographic logP came to 3.61.

`Cc1nc2c(F)cccc2cc1Oc1ccccc1Br` [IIa.05, 3-(2-bromophenoxy)-8-fluoro-2-methylquinoline] returned a chromatographic logP of 3.96.

Compound `Fc1ccc2cc(Oc3ccccc3Br)cnc2c1F` [IIa.06, 3-(2-bromophenoxy)-7,8-difluoroquinoline] came in with a chromatographic logP of 3.92.

Compound `Cc1nc2c(F)c(F)ccc2cc1Oc1ccccc1Br` [IIa.07, 3-(2-bromophenoxy)-7,8-difluoro-2-methylquinoline] displayed a chromatographic logP of 4.25.

The compound `Cc1nc2ccccc2cc1Oc1ccccc1Br` [IIa.08, 3-(2-bromophenoxy)-2-methylquinoline] yielded a chromatographic logP of 3.96.

Regarding `Cc1nc2c(F)c(F)ccc2cc1Oc1c(F)cccc1Br` [IIa.09, 3-(2-bromo-6-fluorophenoxy)-7,8-difluoro-2-methylquinoline], the chromatographic logP is 4.25.

Compound `Cc1nc2c(F)c(F)ccc2cc1Oc1cc(F)ccc1Br` [IIa.10, 3-(2-bromo-5-fluorophenoxy)-7,8-difluoro-2-methylquinoline] gave a chromatographic logP of 4.34.

In the case of `Fc1ccc(Oc2cnc3c(Cl)cccc3c2)c(Br)c1` [IIa.11, 3-(2-bromo-4-fluorophenoxy)-8-chloroquinoline], the chromatographic logP worked out at 4.18.

Consider `Cc1nc2c(F)c(F)ccc2cc1Oc1ccc(F)cc1Br` [IIa.12, 3-(2-bromo-4-fluorophenoxy)-7,8-difluoro-2-methylquinoline], for which the chromatographic logP is 4.25.

In the case of `Cc1nc2ccccc2cc1Oc1ccc(F)cc1Br` [IIa.13, 3-(2-bromo-4-fluorophenoxy)-2-methylquinoline], the chromatographic logP is 3.35.

Still in this data set, the particulars now being: reversed-phase HPLC column (C18), Method B: 40° C., 0.001 molar ammonium acetate solution in water and acetonitrile.
For the compound `Brc1c(COC2CCCCO2)cccc1Nc1cnc2ccccc2c1` (stereo not drawn) [II.04A, N-{2-bromo-3-[(tetrahydro-2H-pyran-2-yloxy)methyl]phenyl}quinolin-3-amine], the chromatographic logP is 4.13.

Still in this data set, the particulars now being: reversed-phase HPLC column (C18), logP Method A.
On to `O=Cc1cccc(Oc2cnc3ccccc3c2)c1I` [II.01A], for which the chromatographic logP amounted to 3.29.

`O=Cc1cccc(Oc2cnc3c(F)c(F)ccc3n2)c1Br` [II.01B] displayed a chromatographic logP of 3.48.

The compound `OCc1cccc(Oc2cnc3ccccc3c2)c1I` [II.02A] yielded a chromatographic logP of 2.59.

For the compound `Cc1nc2ccccc2cc1Oc1cccc(CCO)c1Br` [II.03A], the chromatographic logP turned out to be 2.14.

`Cc1nc2ccccc2cc1Oc1cccc(CCCl)c1Br` [II.08A] yielded a chromatographic logP of 3.99.

Staying with this data set, now noted: reversed-phase HPLC column (C18), logP Method B.
`Brc1c(COC2CCCCO2)cccc1Nc1cnc2ccccc2c1` (stereo not drawn) [II.04A, N-{2-bromo-3-[(tetrahydro-2H-pyran-2-yloxy)methyl]phenyl}quinolin-3-amine] gave a chromatographic logP of 4.13.

Take `Ic1c(COC2CCCCO2)cccc1Oc1cnc2ccccc2c1` (stereo not drawn) [II.05A]: the chromatographic logP amounted to 4.56.
